# Measured values published in patent US9067922B2, “Chemical compounds” (Pfizer Limited, priority 2013, dated 2015).
# Target: URAT-1 transporter (Homo sapiens (Human), UniProt Q96S37)
# Assay: URAT-1 inhibitor activity: [14C]-uric acid uptake in CHO-URAT1(L)GFP#8 (CHO#8) cells, scintillation proximity
# Assay type: cell-based
# Conditions: inhibition of [14C]-uric acid (30 nM) uptake into CHO#8 cells; compound 0 to 10 μM; 4 parameter logistic fit
# Description: The nucleotide sequence for the long isoform of URAT1 (NM_144585) was C-terminally fused to that of enhanced green fluorescent protein (eGFP) (hereinafter referred to as URAT1(L)GFP). The combined sequence was codon-optimised and custom synthesized. The synthesized sequence was generated in pDONR221 Gateway entry vector (Invitrogen Life Technologies) prior to cloning in pLenti6.3/V5 Gateway destination vector (Invitrogen Life Technologies).
# Lentiviral particles were generated according to ViraPower HiPerform expression system procedure (Invitrogen Life Technologies) and used to transduce CHO cells. […] The clonal pools were sorted using fluorescence-activated cell sorting (FACS) on the basis of GFP expression with the gating set at the top 50% of expression into single cells which were subsequently expanded to generate clonal lines. […] This cell line was used for all screening activities and is referred to as CHO-URAT1(L)GFP#8 or CHO#8.
# The potency of the compounds of formula (I) as inhibitors of the URAT-1 transporter was determined as follows.
# CHO#8 cells were cultured in cell line maintenance flasks in medium consisting of Dulbecco's modified Eagle medium (DMEM) with high glucose and sodium pyruvate (4.5 g of glucose per liter, Invitrogen Life Technologies), supplemented with heat-inactivated foetal bovine serum (FBC, 10% v/v), 1×NEAA (non-essential amino acids) and blasticidin (10 μg/ml). Cultures were grown in 175 cm^2 tissue culture flasks in a humidified incubator at approximately 37° C. in approximately 95% air/5% CO2. Near confluent CHO#8 cell cultures were harvested by trypsinisation, re-suspended in culture medium and the process was repeated once or twice weekly to provide sufficient cells for use.
# Assay ready flasks were generated by the same method, except the cells were not cultured in blasticidin.
# Assay ready frozen cells were generated by freezing 40,000,000 cells in 1 ml of FBS (without blasticidin) containing 10% DMSO per vial. One vial was sufficient for 5 assay plates. Each vial was thawed rapidly to 37° C., washed and re-suspended in pre-warmed culture medium for seeding onto assay plates.
# CHO#8 cells were seeded onto Cytostar™ 96-well plates at a density of […]. The cells were cultured for 1 day at approximately 37° C. in a humidified incubator containing approximately 5% CO2 in air. After approximately 24 hours culture, cells were used for uptake experiments.
# On the day of assay, culture medium was removed from the wells and the cells were washed once with 50 μL of chloride-containing buffer (136.7 mM NaCl, 5.36 mM KCl, 0.952 mM CaCl2, 0.441 mM KH2PO4, 0.812 mM MgSO4, 5.6 mM D-glucose, 0.383 mM Na2HPO4.2H2O, 10 mM HEPES, pH 7.4 with NaOH). The cells were pre-incubated with another 50 μL of chloride-containing buffer for one hour at approximately 37° C. in a humidified incubator containing approximately 5% CO2 in air.
# Assay compound plates were prepared by diluting the compounds of formula (I) with chloride-free buffer (125 mM Na-gluconate, 4.8 mM K-gluconate, 1.3 mM Ca-gluconate, 1.2 mM KH2PO4, 1.2 mM MgSO4, 5.6 mM D-glucose, 25 mM HEPES, pH 7.4 with NaOH) in 100% DMSO to a final concentration of 1% DMSO. [^14C]-Uric Uric acid working stock was made by addition of radiolabeled compound to a final concentration of 120 nM in chloride-free buffer. In all wells, the final assay concentration of solvent (DMSO) was 0.25%; the final assay concentration of [^14C]-uric acid was 30 nM in chloride-free buffer and the final compound of formula (I) concentrations ranged from 0 to 10 μM.
# After pre-incubation, cells were washed with 50 μL of chloride-free buffer and another 50 μL of chloride-free buffer was added.
# Chain of URAT-1 transporter (Q96S37 other isoform, or with tags, fused parts or gaps): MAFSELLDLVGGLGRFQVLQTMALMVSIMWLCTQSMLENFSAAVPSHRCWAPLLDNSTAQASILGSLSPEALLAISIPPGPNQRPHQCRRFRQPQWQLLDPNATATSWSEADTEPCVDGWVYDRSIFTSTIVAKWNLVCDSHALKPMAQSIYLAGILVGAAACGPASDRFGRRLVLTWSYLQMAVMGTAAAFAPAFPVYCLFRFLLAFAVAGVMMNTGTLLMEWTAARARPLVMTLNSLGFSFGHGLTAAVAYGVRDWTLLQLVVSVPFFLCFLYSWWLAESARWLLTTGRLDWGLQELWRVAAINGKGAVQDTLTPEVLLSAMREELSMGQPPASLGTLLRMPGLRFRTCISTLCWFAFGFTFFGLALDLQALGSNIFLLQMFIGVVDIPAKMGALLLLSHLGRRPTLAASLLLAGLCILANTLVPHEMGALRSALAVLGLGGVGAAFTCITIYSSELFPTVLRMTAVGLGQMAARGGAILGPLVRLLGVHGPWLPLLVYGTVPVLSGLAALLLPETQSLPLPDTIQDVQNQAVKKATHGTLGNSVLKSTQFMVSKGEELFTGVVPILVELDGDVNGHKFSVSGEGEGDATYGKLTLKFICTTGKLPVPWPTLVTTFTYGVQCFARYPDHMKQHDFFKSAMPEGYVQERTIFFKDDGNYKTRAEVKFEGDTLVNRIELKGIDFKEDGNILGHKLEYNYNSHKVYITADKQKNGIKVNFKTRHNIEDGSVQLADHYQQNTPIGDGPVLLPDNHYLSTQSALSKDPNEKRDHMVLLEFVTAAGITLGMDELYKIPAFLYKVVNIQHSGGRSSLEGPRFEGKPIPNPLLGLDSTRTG
row,SMILES,IC50 [nM]
1,"N#Cc1ccc(F)c(Oc2ccc(S(=O)(=O)Nc3ccc(F)cn3)cc2C#N)c1 [Example 69, 3-cyano-4-(5-cyano-2-fluorophenoxy)-N-(5-fluoropyridin-2-yl)benzenesulfonamide]",1310
2,"N#Cc1cc(F)c(Oc2ccc(S(=O)(=O)Nc3ccc(F)cn3)cc2C#N)cc1F [Example 72, 3-cyano-4-(4-cyano-2,5-difluorophenoxy)-N-(5-fluoropyridin-2-yl)benzenesulfonamide]",77
3,"N#Cc1cc(S(=O)(=O)Nc2ccc(F)cn2)ccc1Oc1c(Cl)cccc1C#N [Example 73, 4-(2-chloro-6-cyanophenoxy)-3-cyano-N-(5-fluoropyridin-2-yl)benzenesulfonamide]",418
4,"N#Cc1cc(S(=O)(=O)Nc2ccc(F)cn2)ccc1Oc1ccc(Cl)cc1OC(F)F [Example 74, 4-[4-chloro-2-(difluoromethoxy)phenoxy]-3-cyano-N-(5-fluoropyridin-2-yl)benzenesulfonamide]",> 10000
5,"COc1cc(Oc2ccc(S(=O)(=O)Nc3ccc(F)cn3)cc2C#N)ccc1C#N [Example 76, 3-cyano-4-(4-cyano-3-methoxyphenoxy)-N-(5-fluoropyridin-2-yl)benzenesulfonamide]",57
6,"N#Cc1cc(S(=O)(=O)Nc2ccc(F)cn2)ccc1Oc1ccc(F)c(Cl)c1 [Example 78, 4-(3-chloro-4-fluorophenoxy)-3-cyano-N-(5-fluoropyridin-2-yl)benzenesulfonamide]",19
7,"Cc1cc(Oc2ccc(S(=O)(=O)Nc3ccc(F)cn3)cc2C#N)cc(C)c1C#N [Example 79, 3-cyano-4-(4-cyano-3,5-dimethylphenoxy)-N-(5-fluoropyridin-2-yl)benzenesulfonamide]",7
8,"O=S(=O)(Nc1ncccn1)c1cc(Cl)c(Oc2ccc(Cl)cc2OC(F)F)cc1F [Example 83, 5-chloro-4-[4-chloro-2-(difluoromethoxy)phenoxy]-2-fluoro-N-(pyrimidin-2-yl)benzenesulfonamide]",> 5970
9,"O=S(=O)(Nc1cccnn1)c1ccc(Oc2ccc(Cl)cc2OC(F)F)c(Cl)c1 [Example 84, 3-chloro-4-[4-chloro-2-(difluoromethoxy)phenoxy]-N-(pyridazin-3-yl)benzenesulfonamide]",> 8870
10,"N#Cc1ccc(Oc2ccc(S(=O)(=O)Nc3ncc(F)cn3)cc2C#N)cc1Cl [Example 91, 4-(3-chloro-4-cyanophenoxy)-3-cyano-N-(5-fluoropyrimidin-2-yl)benzenesulfonamide]",1950
11,"N#Cc1ccc(Oc2ccc(S(=O)(=O)Nc3cccnc3)cc2C#N)cc1Cl [Example 92, 4-(3-chloro-4-cyanophenoxy)-3-cyano-N-(pyridin-3-yl)benzenesulfonamide]",414
12,"N#Cc1ccc(Oc2ccc(S(=O)(=O)Nc3ccnnc3)cc2C#N)cc1Cl [Example 94, 4-(3-chloro-4-cyanophenoxy)-3-cyano-N-(pyridazin-4-yl)benzenesulfonamide]",> 10000
13,"N#Cc1ccc(Oc2ccc(S(=O)(=O)Nc3ccc(F)cn3)cc2F)cc1F [Example 97, 4-(4-cyano-3-fluorophenoxy)-3-fluoro-N-(5-fluoropyridin-2-yl)benzenesulfonamide]",> 1670
14,"N#Cc1ccc(Oc2ccc(S(=O)(=O)Nc3ccc(F)cn3)c(F)c2)cc1F [Example 99, 4-(4-cyano-3-fluorophenoxy)-2-fluoro-N-(5-fluoropyridin-2-yl)benzenesulfonamide]",29

# The remaining lines, values ahead:
row,IC50 [nM],SMILES
1,25,"COc1ncc(Oc2ccc(S(=O)(=O)Nc3ccc(F)cn3)cc2C#N)cc1Cl [Example 70, 4-[(5-chloro-6-methoxypyridin-3-yl)oxy]-3-cyano-N-(5-fluoropyridin-2-yl)benzenesulfonamide]"
2,27,"COc1cc(Oc2ccc(S(=O)(=O)Nc3ccc(F)cn3)cc2C#N)ccc1Cl [Example 71, 4-(4-chloro-3-methoxyphenoxy)-3-cyano-N-(5-fluoropyridin-2-yl)benzenesulfonamide]"
3,2210,"N#Cc1cc(S(=O)(=O)Nc2ccc(F)cn2)ccc1Oc1cccc(C#N)c1F [Example 75, 3-cyano-4-(3-cyano-2-fluorophenoxy)-N-(5-fluoropyridin-2-yl)benzenesulfonamide]"
4,43,"N#Cc1cc(S(=O)(=O)Nc2ccc(F)cn2)ccc1Oc1ccc(F)c(F)c1 [Example 77, 3-cyano-4-(3,4-difluorophenoxy)-N-(5-fluoropyridin-2-yl)benzenesulfonamide]"
5,728,"N#Cc1cc(S(=O)(=O)Nc2ccccn2)ccc1Oc1ccc(Cl)cc1I [Example 80, 4-(4-chloro-2-iodophenoxy)-3-cyano-N-(pyridin-2-yl)benzenesulfonamide]"
6,> 10000,"COc1cc(Cl)ccc1Oc1ccc(S(=O)(=O)Nc2cccnn2)cc1Cl [Example 81, 3-chloro-4-(4-chloro-2-methoxyphenoxy)-N-(pyridazin-3-yl)benzenesulfonamide]"
7,> 10000,"O=S(=O)(Nc1cccnn1)c1cc(Cl)c(Oc2ccc(Cl)cc2OC(F)F)cc1F [Example 85, 5-chloro-4-[4-chloro-2-(difluoromethoxy)phenoxy]-2-fluoro-N-(pyridazin-3-yl)benzenesulfonamide]"
8,> 5330,"N#Cc1cc(S(=O)(=O)Nc2cccnn2)ccc1Oc1ccc(Cl)cc1OC(F)F [Example 86, 4-[4-chloro-2-(difluoromethoxy)phenoxy]-3-cyano-N-(pyridazin-3-yl)benzenesulfonamide]"
9,> 7670,"N#Cc1ccc(Oc2ccc(S(=O)(=O)Nc3ccncn3)cc2C#N)cc1Cl [Example 87, 4-(3-chloro-4-cyanophenoxy)-3-cyano-N-(pyrimidin-4-yl)benzenesulfonamide]"
10,429,"N#Cc1ccc(Oc2ccc(S(=O)(=O)Nc3cccnn3)cc2C#N)cc1F [Example 88, 3-cyano-4-(4-cyano-3-fluorophenoxy)-N-(pyridazin-3-yl)benzenesulfonamide]"
11,105,"N#Cc1ccc(Oc2ccc(S(=O)(=O)Nc3ccccn3)cc2C#N)cc1Cl [Example 89, 4-(3-chloro-4-cyanophenoxy)-3-cyano-N-(pyridin-2-yl)benzenesulfonamide]"
12,> 3580,"N#Cc1ccc(Oc2ccc(S(=O)(=O)Nc3ncccn3)cc2C#N)cc1Cl [Example 90, 4-(3-chloro-4-cyanophenoxy)-3-cyano-N-(pyrimidin-2-yl)benzenesulfonamide]"
13,2980,"N#Cc1ccc(Oc2ccc(S(=O)(=O)Nc3cnccn3)cc2C#N)cc1Cl [Example 93, 4-(3-chloro-4-cyanophenoxy)-3-cyano-N-(pyrazin-2-yl)benzenesulfonamide]"
14,> 10000,"N#Cc1ccc(Oc2cc(F)c(S(=O)(=O)Nc3ccc(F)cn3)cc2F)cc1F [Example 95, 4-(4-cyano-3-fluorophenoxy)-2,5-difluoro-N-(5-fluoropyridin-2-yl)benzenesulfonamide]"
15,> 10000,"N#Cc1ccc(Oc2ccc(S(=O)(=O)Nc3cncnc3)cc2C#N)cc1Cl [Example 96, 4-(3-chloro-4-cyanophenoxy)-3-cyano-N-(pyrimidin-5-yl)benzenesulfonamide]"
16,3870,"N#Cc1ccc(Oc2ccc(S(=O)(=O)Nc3cccnn3)cc2C#N)cc1Cl [Example 98, 4-(3-chloro-4-cyanophenoxy)-3-cyano-N-(pyridazin-3-yl)benzenesulfonamide]"
17,> 10000,"N#Cc1ccc(Oc2ccc(S(=O)(=O)Nc3ccncc3)cc2C#N)cc1Cl [Example 100, 4-(3-chloro-4-cyanophenoxy)-3-cyano-N-(pyridin-4-yl)benzenesulfonamide]"
18,594,"Cc1cccnc1NS(=O)(=O)c1ccc(Oc2ccc(C#N)c(Cl)c2)c(C#N)c1 [Example 101, 4-(3-chloro-4-cyanophenoxy)-3-cyano-N-(3-methylpyridin-2-yl)benzenesulfonamide]"
